Source: the supplement of paper PMC10307832

Columns and labels:
Experiment in all cases: relative viability (nuclei count vs DMSO), 5 days (fraction); higher = more cells survive
[1] = compound: CC[C@H](Nc1ncnc2[nH]cnc12)c1nc2cccc(F)c2c(=O)n1-c1ccccc1 [Idelalisib] + NC(=O)Nc1cc(-c2cccc(F)c2)sc1C(=O)N[C@H]1CCCNC1 [AZD7762] (partner 0.2 µM)
In short: (§1)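 Five library-drug doses in √10 steps were combined with a fixed anchor-drug dose, or a single drug was given alone, by pin tool to lung cancer cell lines in 1536-well plates the day after seeding. Nuclei were stained and counted after 5 days. Relative viability is the nuclei count in treated wells over that in vehicle wells, taken as the median of duplicate plates.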

[2] = compound: Nc1nc2[nH]cc(CCc3ccc(C(=O)N[C@@H](CCC(=O)O)C(=O)O)cc3)c2c(=O)[nH]1 [Pemetrexed] + CC(=O)Nc1cccc(-n2c(=O)n(C3CC3)c(=O)c3c(Nc4ccc(I)cc4F)n(C)c(=O)c(C)c32)c1 [Trametinib] (partner 0.02 µM)
In short: as §1

[3] = compound: Nc1nc2[nH]cc(CCc3ccc(C(=O)N[C@@H](CCC(=O)O)C(=O)O)cc3)c2c(=O)[nH]1 [Pemetrexed] + CC(=O)c1c(C)c2cnc(Nc3ccc(N4CCNCC4)cn3)nc2n(C2CCCC2)c1=O [Palbociclib] (partner 0.5 µM)
In short: as §1

[4] = compound: Nc1nc2[nH]cc(CCc3ccc(C(=O)N[C@@H](CCC(=O)O)C(=O)O)cc3)c2c(=O)[nH]1 [Pemetrexed] + CS(=O)(=O)CCNCc1ccc(-c2ccc3ncnc(Nc4ccc(OCc5cccc(F)c5)c(Cl)c4)c3c2)o1 [Lapatinib] (partner 2 µM)
In short: as §1

Row | Cell Line | relative viability ([1]; first compound 0.04 µM) | relative viability ([1]; first compound 0.1265 µM) | relative viability ([1]; first compound 0.4 µM) | relative viability ([1]; first compound 1.265 µM) | relative viability ([1]; first compound 4 µM) | relative viability ([2]; first compound 0.002 µM) | relative viability ([2]; first compound 0.006325 µM) | relative viability ([2]; first compound 0.02 µM) | relative viability ([2]; first compound 0.06325 µM) | relative viability ([2]; first compound 0.2 µM) | relative viability ([3]; first compound 0.002 µM) | relative viability ([3]; first compound 0.006325 µM) | relative viability ([3]; first compound 0.02 µM) | relative viability ([3]; first compound 0.06325 µM) | relative viability ([3]; first compound 0.2 µM) | relative viability ([4]; first compound 0.002 µM) | relative viability ([4]; first compound 0.006325 µM) | relative viability ([4]; first compound 0.02 µM) | relative viability ([4]; first compound 0.06325 µM) | relative viability ([4]; first compound 0.2 µM)
1 | EKVX | 0.706 | 0.698 | 0.596 | 0.558 | 0.64 | 0.337 | 0.327 | 0.37 | 0.297 | 0.218 | 0.386 | 0.365 | 0.407 | 0.399 | 0.284 | 0.17 | 0.191 | 0.194 | 0.185 | 0.182
2 | EMC-BAC-2 | 1.08 | 1.1 | 1.02 | 1.11 | 1.08 | 0.826 | 0.755 | 0.986 | 0.807 | 0.618 | 0.51 | 0.461 | 0.543 | 0.493 | 0.466 | 0.792 | 0.777 | 0.961 | 0.903 | 0.888
3 | EPLC-272H | 0.202 | 0.171 | 0.28 | 0.124 | 0.153 | 0.33 | 0.27 | 0.385 | 0.305 | 0.227 | 0.355 | 0.331 | 0.356 | 0.332 | 0.303 | 0.806 | 1.04 | 1.16 | 0.972 | 1.04
4 | H3255 | 0.956 | 0.859 | 0.911 | 0.909 | 0.802 | 0.517 | 0.581 | 0.673 | 0.55 | 0.515 | 0.351 | 0.319 | 0.312 | 0.31 | 0.328 |  | 0.15 | 0.278 | 0.245 | 0.296
5 | HARA | 0.309 | 0.301 |  | 0.169 | 0.392 | 0.592 | 0.395 | 0.797 | 0.41 | 0.17 | 0.241 | 0.277 | 0.228 | 0.231 | 0.234 | 0.681 | 0.747 | 1.01 | 0.674 | 0.365
6 | HCC-15 | 1.35 | 0.909 | 1.25 | 1.16 | 1.21 | 0.371 | 0.344 | 0.392 | 0.336 | 0.218 | 0.661 | 0.712 | 0.717 | 0.669 | 0.309 | 0.751 | 0.763 | 1 | 0.655 | 0.444
7 | HCC-44 | 1.04 | 0.998 | 1.03 | 0.991 | 1.11 | 0.946 | 1.05 | 1.14 | 1.09 | 1.04 | 0.909 | 0.95 | 0.934 | 0.972 | 0.99 | 0.928 | 1 | 1.03 | 1.02 | 0.874
8 | HCC-78 | 0.509 | 0.649 | 0.555 | 0.609 | 0.547 |  | 0.671 | 0.676 | 0.382 | 0.356 | 0.443 | 0.484 | 0.441 | 0.417 | 0.424 |  | 0.796 | 0.58 | 0.223 | 0.153
